Values quoted from earlier work as cited in PMC11289879 (RSC Chemical Biology, 2024).

Legend:
acute heart failure = settings: clinical trial (Novartis; second phase III)

solubility in an acidic solvent | Substance | effect on the treatment of acute heart failure (acute heart failure)
 | Human relaxin-2 [H2 relaxin] | no significant effect
poorly soluble | DSWMEEVIKLCGRELVRAQIAICGMSTWS [B-chain] | 
